Assays:
corn = experiment: Test B pre/postemergence corn; type: in vivo, Zea mays
How it was run: (§1)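 Herbicidal effect was estimated by eye on a ten-point control scale after plants spent twelve to sixteen days in a greenhouse following soil or foliar treatment. Foliar sprays targeted plants at one to four leaves; all doses were formulated in a non-phytotoxic solvent with surfactant.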

wheat = experiment: Test B pre/postemergence wheat; type: in vivo, Triticum aestivum
How it was run: as §1

bedstraw = experiment: Test B pre/postemergence bedstraw; type: in vivo, Galium aparine
How it was run: as §1

purple nutsedge = experiment: Test B pre/postemergence purple nutsedge; type: in vivo, Cyperus rotundus
How it was run: as §1

wild oat = experiment: Test B pre/postemergence wild oat; type: in vivo, Avena fatua
How it was run: as §1

crabgrass = experiment: Test B pre/postemergence crabgrass; type: in vivo, Digitaria sanguinalis
How it was run: as §1

soybean = experiment: Test B pre/postemergence soybean; type: in vivo, Glycine max
How it was run: as §1

velvetleaf = experiment: Test B pre/postemergence velvetleaf; type: in vivo, Abutilon theophrasti
How it was run: as §1

rape = experiment: Test B pre/postemergence rape; type: in vivo, Brassica napus
How it was run: as §1

smallflower flatsedge = experiment: Test B flood test smallflower flatsedge; type: in vivo, Cyperus difformis
How it was run: (§2)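 Read-out is a visual response score from 0 (no effect) to 10 (complete control), assigned by comparison with untreated controls. Treatment was applied at the 2-leaf stage, and plants stayed in the greenhouse for twelve to sixteen days before scoring.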

pigweed = experiment: Test B pre/postemergence pigweed; type: in vivo, Amaranthus retroflexus
How it was run: as §1

bamyardgrass = experiment: Test B flood test barnyardgrass; type: in vivo, Echinochloa crus-galli
How it was run: as §2

sugar beet = experiment: Test B pre/postemergence sugar beet; type: in vivo, Beta vulgaris
How it was run: as §1

cocklebur = experiment: Test B pre/postemergence cocklebur; type: in vivo, Xanthium strumarium
How it was run: as §1

blackgrass = experiment: Test B pre/postemergence blackgrass; type: in vivo, Alopecurus myosuroides
How it was run: as §1

surinam grass = experiment: Test B pre/postemergence surinam grass; type: in vivo, Brachiaria decumbens
How it was run: as §1

[1] = Postemergence, Rate 62 g/ha, scale 0 to 10, 0 is no effect, 10 is complete control
[2] = Postemergence, Rate 125 g/ha, scale of 0 to 10 where 0 is no effect and 10 is complete control
[3] = Postemergence, Rate 250 g/ha, scale of 0 to 10, 0 is no effect, 10 is complete control
[4] = Postemergence, Rate 500 g/ha, scale of 0 to 10 where 0 is no effect and 10 is complete control
[5] = Preemergence, Rate 62 g/ha, scale 0 to 10 (0 no effect, 10 complete control)
[6] = Preemergence, Rate 125 g/ha, scale of 0 to 10 where 0 is no effect and 10 is complete control
[7] = Preemergence, Rate 250 g/ha, scale 0 to 10 (0 no effect, 10 complete control)
[8] = Preemergence, Rate 500 g/ha, scale of 0 to 10 where 0 is no effect and 10 is complete control
[9] = Rate 62 g/ha, flood test species, Pre-emergence, visual evaluation after twelve to sixteen days
[10] = Rate 125 g/ha, under heading Pre-emergence, flood test species, visual evaluation after twelve to sixteen days
[11] = Rate 250 g/ha, Pre-emergence (flood test species), scale 0 to 10, 0 is no effect, 10 is complete control
[12] = Rate 500 g/ha, Pre-emergence section of Table B, 0 to 10 scale (0 no effect, 10 complete control)

Structure (SMILES): CC(=O)NCn1c(=O)on(C(=O)N(c2ccccc2)C(C)C)c1=O [Compound 621]
- Plant response rating, Corn (corn; [1]): 0
- Plant response rating, Corn (corn; [2]): 0
- Corn plant response rating (corn; [3]): 0
- Plant response rating, Corn (corn; [4]): 0
- Corn plant response rating (corn; [5]): 0
- Corn plant response rating (corn; [6]): 0
- Plant response rating, Corn (corn; [7]): 0
- Plant response rating, Corn (corn; [8]): 0
- Plant response rating, Wheat (wheat; [1]): 0
- Plant response rating, Wheat (wheat; [2]): 0
- Wheat plant response rating (wheat; [3]): 0
- Wheat plant response rating (wheat; [5]): 0
- Wheat plant response rating (wheat; [6]): 0
- Plant response rating, Wheat (wheat; [7]): 0
- Plant response rating, Wheat (wheat; [8]): 0
- Plant response rating, Bedstraw (bedstraw; [2]): 0
- Bedstraw plant response rating (bedstraw; [5]): 0
- Bedstraw plant response rating (bedstraw; [6]): 0
- Plant response rating, Bedstraw (bedstraw; [7]): 0
- Bedstraw plant response rating (bedstraw; [8]): 0
- Plant response rating, Nutsedge (purple nutsedge; [1]): 0
- Plant response rating, Nutsedge (purple nutsedge; [2]): 0
- Nutsedge plant response rating (purple nutsedge; [3]): 0
- Plant response rating, Nutsedge (purple nutsedge; [4]): 0
- Nutsedge plant response rating (purple nutsedge; [5]): 0
- Nutsedge plant response rating (purple nutsedge; [6]): 0
- Plant response rating, Nutsedge (purple nutsedge; [7]): 0
- Plant response rating, Nutsedge (purple nutsedge; [8]): 0
- Plant response rating, Wild oats (wild oat; [1]): 0
- Plant response rating, Wild oats (wild oat; [2]): 0
- Wild oats plant response rating (wild oat; [3]): 0
- Wild oats plant response rating (wild oat; [5]): 0
- Wild oats plant response rating (wild oat; [6]): 0
- Plant response rating, Wild oats (wild oat; [7]): 0
- Plant response rating, Wild oats (wild oat; [8]): 0
- Plant response rating, Crabgrass (crabgrass; [1]): 0
- Plant response rating, Crabgrass (crabgrass; [2]): 3
- Crabgrass plant response rating (crabgrass; [5]): 5
- Crabgrass plant response rating (crabgrass; [6]): 6
- Plant response rating, Crabgrass (crabgrass; [7]): 7
- Plant response rating, Crabgrass (crabgrass; [8]): 8
- Plant response rating, Soybean (soybean; [1]): 1
- Plant response rating, Soybean (soybean; [2]): 5
- Soybean plant response rating (soybean; [3]): 5
- Soybean plant response rating (soybean; [5]): 0
- Soybean plant response rating (soybean; [6]): 0
- Plant response rating, Soybean (soybean; [7]): 0
- Plant response rating, Soybean (soybean; [8]): 3
- Plant response rating, Velvetleaf (velvetleaf; [1]): 0
- Plant response rating, Velvetleaf (velvetleaf; [2]): 0
- Velvetleaf plant response rating (velvetleaf; [3]): 0
- Velvetleaf plant response rating (velvetleaf; [5]): 0
- Velvetleaf plant response rating (velvetleaf; [6]): 0
- Plant response rating, Velvetleaf (velvetleaf; [7]): 0
- Plant response rating, Velvetleaf (velvetleaf; [8]): 0
- Plant response rating, Rape (rape; [1]): 0
- Plant response rating, Rape (rape; [2]): 0
- Rape plant response rating (rape; [3]): 0
- Plant response rating, Rape (rape; [4]): 0
- Rape plant response rating (rape; [5]): 0
- Rape plant response rating (rape; [6]): 0
- Plant response rating, Rape (rape; [7]): 0
- Plant response rating, Rape (rape; [8]): 0
- Plant response rating, S. Flatsedge (0 to 10 scale, 0 is no effect, 10 is complete control) (smallflower flatsedge; [9]): 0
- S. Flatsedge plant response rating (0 to 10 scale, 0 is no effect, 10 is complete control) (smallflower flatsedge; [10]): 0
- S. Flatsedge plant response rating (smallflower flatsedge; [11]): 0
- S. Flatsedge plant response rating (smallflower flatsedge; [12]): 0
- Plant response rating, Redroot pigweed (pigweed; [1]): 0
- Plant response rating, Redroot pigweed (pigweed; [2]): 0
- Redroot pigweed plant response rating (pigweed; [3]): 0
- Redroot pigweed plant response rating (pigweed; [5]): 0
- Redroot pigweed plant response rating (pigweed; [6]): 0
- Plant response rating, Redroot pigweed (pigweed; [7]): 0
- Plant response rating, Redroot pigweed (pigweed; [8]): 0
- Plant response rating, Barnyardgrass (0 to 10 scale, 0 is no effect, 10 is complete control) (bamyardgrass; [9]): 0
- Barnyardgrass plant response rating (0 to 10 scale, 0 is no effect, 10 is complete control) (bamyardgrass; [10]): 0
- Barnyardgrass plant response rating (bamyardgrass; [11]): 0
- Barnyardgrass plant response rating (bamyardgrass; [12]): 0
- Plant response rating, Sugarbeets (sugar beet; [1]): 0
- Plant response rating, Sugarbeets (sugar beet; [2]): 0
- Sugarbeets plant response rating (sugar beet; [3]): 0
- Sugarbeets plant response rating (sugar beet; [5]): 0
- Sugarbeets plant response rating (sugar beet; [6]): 0
- Plant response rating, Sugarbeets (sugar beet; [7]): 0
- Plant response rating, Sugarbeets (sugar beet; [8]): 0
- Plant response rating, Cocklebur (cocklebur; [1]): 0
- Plant response rating, Cocklebur (cocklebur; [2]): 0
- Cocklebur plant response rating (cocklebur; [3]): 0
- Plant response rating, Cocklebur (cocklebur; [4]): 0
- Cocklebur plant response rating (cocklebur; [5]): 0
- Cocklebur plant response rating (cocklebur; [6]): 0
- Plant response rating, Cocklebur (cocklebur; [7]): 0
- Plant response rating, Cocklebur (cocklebur; [8]): 0
- Plant response rating, Blackgrass (blackgrass; [1]): 0
- Plant response rating, Blackgrass (blackgrass; [2]): 0
- Blackgrass plant response rating (blackgrass; [3]): 0
- Plant response rating, Blackgrass (blackgrass; [4]): 0
- Blackgrass plant response rating (blackgrass; [5]): 0
- Blackgrass plant response rating (blackgrass; [6]): 0
- Plant response rating, Blackgrass (blackgrass; [7]): 0
- Blackgrass plant response rating (blackgrass; [8]): 0
- Plant response rating, B. signalgrass (surinam grass; [1]): 0
- Plant response rating, B. signalgrass (surinam grass; [2]): 0
- B. signalgrass plant response rating (surinam grass; [3]): 0
- Plant response rating, B. signalgrass (surinam grass; [4]): 0
- B. signalgrass plant response rating (surinam grass; [5]): 0
- B. signalgrass plant response rating (surinam grass; [6]): 0
- Plant response rating, B. signalgrass (surinam grass; [7]): 0
- B. signalgrass plant response rating (surinam grass; [8]): 0
